In US12017975B2, “Myc-Max inhibitor compound therapeutics for cancer treatment, methods and uses associated therewith” (THE UNIVERSITY OF BRITISH COLUMBIA, priority 2018, dated 2024):
pIC50: −log10 of the molar value. Like-named read-outs stand apart in the source and are kept apart here. Residues, ends and D or L forms follow the SMILES beside them.

Tested on: Myc-Max transcriptional activity
Assay: Cignal c-Myc luciferase reporter assay in LNCaP cells
Assay type: cell-based
Details: for inhibition at 25 µM / inhibition at 5 µM / inhibition at 10 µM / pIC50 / inhibition at 12.5 µM: Homo sapiens, LNCaP; for pIC50: assay not named, read-out: IC50
Experimental: Cell transfection was performed using TransIT-2020™ transfection reagents according to the manufacturer's instructions (Mirus™). LNCaP cells were plated at 10000 cells per well and treated for 1 day with the indicated concentration of compound. Myc reporter activity was measured using the Cignal Myc Reporter Assay Kit™ from Qiagen™ (#336841) according to the manufacturer's instructions. For the UBE2C reporter assay, 22rv1 cells were plated at 10000 cells per well in 96-well plates in RPMI media supplemented with 5% charcoal-stripped serum (CSS) and treated for 1 day with 1 μM, 10 μM and 25 μM of compound.
Compounds were subjected to experimental evaluation using the commercially available transcriptional assay Cignal c-Myc luciferase reporter assay in LNCaP cells. […] A transiently transfected Myc-driven luciferase reporter allowed the monitoring of Myc-regulated signal in LNCaP upon treatment with the in silico identified compounds.

[1] = 25 μM, TABLE 5, read-out: % Inhibition 25 μM
[2] = 25 μM, TABLE 3, read-out: % Inhibition 25 μM
[3] = TABLE 2, values match Myc-Max transcriptional activity

SMILES: C[C@@H](NC(=O)NC[C@@H](O)COc1cccc(F)c1)c1cccs1 [VPC-70247]
- inhibition at 25 µM [1]: 35%

SMILES: O=C(NCc1ccccc1Cl)Nc1ccc(Cl)c(Cl)c1 [VPC-70466]
- inhibition at 5 µM (5 μM, TABLE 3): 1%
- inhibition at 10 µM (TABLE 3): 48%
- inhibition at 25 µM [2]: 86%

SMILES: Cc1ccccc1C(=O)N[C@H](CC(C)C)C(=O)N1CCN(S(=O)(=O)c2nc[nH]n2)CC1 [VPC-70356]
- inhibition at 25 µM [1]: 53%

SMILES: CS(=O)(O)=Nc1cccc(NC(=S)NCc2cccc(C(F)(F)F)c2)c1 [VPC-70487]
- inhibition at 5 µM (5 μM, TABLE 3): 34%
- inhibition at 10 µM (TABLE 3): 42%
- inhibition at 25 µM [2]: 79%

SMILES: FC(F)(F)c1cc(NC(=S)NC[C@H]2CCCO2)cc(C(F)(F)F)c1 [VPC-70437]
- inhibition at 5 µM (5 μM, TABLE 3): 24%
- inhibition at 10 µM (TABLE 3): 105%
- inhibition at 25 µM [2]: 87%

SMILES: S=C(NCc1ccc(Cl)nc1)Nc1cccc(Cl)c1 [VPC-70524]
- inhibition at 5 µM (5 μM, TABLE 3): 22%
- inhibition at 10 µM (TABLE 3): 4%
- inhibition at 25 µM [2]: 102%

SMILES: CS(=O)(=O)Nc1ccccc1C(=O)OCc1cc(=O)oc2cc(O)ccc12 [VPC-70027]
- inhibition at 25 µM [1]: 53%
- inhibition at 25 µM (24 h, 25 μM, LNCaP cells, TABLE 1, read-out: Myc-Max transcriptional activity % inhibition (25 μM)): 53%

SMILES: S=C(NCc1cccs1)Nc1ccc(Cl)c(Cl)c1 [VPC-70458]
- inhibition at 5 µM (5 μM, TABLE 3): 42%
- inhibition at 10 µM (TABLE 3): 104%
- inhibition at 25 µM [2]: 86%

SMILES: C[C@@H](NC(=O)OCc1ccccc1)C(=O)NCC(=O)Nc1ccc(F)c(F)c1 [VPC-70211]
- inhibition at 25 µM [1]: 47%

SMILES: C[C@@H](NC(=O)OCc1ccccc1)C(=O)N[C@H](CCC(N)=O)C(=O)OCc1ccc([N+](=O)[O-])cc1 [VPC-70386] (HELM PEPTIDE1{[O=C(OCc1ccccc1)[*:2]].[dA].[dQ].[O=[N+]([O-])c1ccc(CO[*:1])cc1]}$$$$V2.0)
- inhibition at 25 µM [1]: 55%

SMILES: CC(=O)N1c2ccc(S(=O)(O)=Nc3ccc(C(=O)NCC(=O)O)cc3)cc2C[C@@H]1C [VPC-70343]
- inhibition at 25 µM [1]: 54%

SMILES: O=C(N[C@H](CO)Cc1ccccc1)c1cc(-n2cnnc2)ccc1Cl [VPC-70395]
- inhibition at 25 µM [1]: 56%
- pIC50 [3]: < 4.60

SMILES: Cc1cccc(-c2cc(C(=O)Nc3ccc(S(=O)(=O)N4CCCCC4)cc3)n[nH]2)c1O [VPC-70390]
- inhibition at 25 µM [2]: 97%
- pIC50 [3]: 5.05

SMILES: Cc1ccc(C(=O)N(C)c2ccc(OCC(=O)NCc3ccc(C(=O)O)cc3)cc2)cc1 [VPC-70358]
- inhibition at 25 µM [1]: 48%

SMILES: NC(=O)CC[C@H](NC(=O)C1(c2ccccc2)CCN(C(=O)[C@@H]2CCCN2)CC1)C(=O)O [VPC-70318]
- inhibition at 25 µM [1]: 54%

SMILES: Cc1ccc(O)c(-c2cc(C(=O)Nc3ccc(S(=O)(=O)N4CCCCC4)cc3)n[nH]2)c1 [VPC-70389]
- inhibition at 25 µM [1]: 58%

SMILES: N#Cc1ccc(NNC(=O)c2ccc(C(F)(F)F)cc2)c(C(F)(F)F)c1 [VPC-70551]
- inhibition at 10 µM (TABLE 6): 91%
- pIC50 (TABLE 6 footnote): 5.40

SMILES: Fc1ccccc1CNC(=S)Nc1cccc(C(F)(F)F)c1 [VPC-70465]
- % Inhibition 10 μM (TABLE 3): 95%
- inhibition at 5 µM (5 μM, TABLE 3): 51%
- inhibition at 25 µM [2]: 92%
- pIC50 [3]: 5.00

SMILES: CC[C@@H](NC(=S)Nc1cccc(C)c1)c1ccccc1 [VPC-70473]
- inhibition at 25 µM [2]: 77%

SMILES: O=C(NCCCc1ccccc1)NC[C@](O)(c1ccccc1)C(F)(F)F [VPC-70205]
- inhibition at 25 µM [1]: 50%

SMILES: CC(C)(O)c1ccc(CNC(=S)NCc2cccc(C(F)(F)F)c2)cc1 [VPC-70561]
- inhibition at 12.5 µM (TABLE 3): 95%

SMILES: Fc1ccccc1CNC(=S)Nc1cccc(C(F)(F)F)c1 [VPC-70483]
- % Inhibition 5 μM (5 μM, TABLE 3): 31%
- % Inhibition 10 μM (TABLE 3): 38%
- % Inhibition 25 μM (25 μM, TABLE 3): 79%

SMILES: O=C(CCN1C(=O)S/C(=C/C=C/c2ccccc2)C1=O)NCCc1c[nH]c2ccccc12 [VPC-70387]
- inhibition at 25 µM [2]: 82%

SMILES: Cc1c(Cl)cccc1NC(=S)NCc1ccc(F)cc1 [VPC-70468]
- inhibition at 5 µM (5 μM, TABLE 3): 9%
- inhibition at 10 µM (TABLE 3): 30%
- inhibition at 25 µM [2]: 74%

SMILES: COc1cccc(NC(=O)c2ccccc2N(C)C(=O)CCC(=O)NCc2ccccc2)c1 [VPC-70340]
- inhibition at 25 µM [1]: 49%

SMILES: CCOCCOc1nc(-c2cccc(F)c2)n(-c2ccc(NC[C@H](O)COC)cc2)n1 [VPC-70379]
- inhibition at 25 µM [1]: 52%

SMILES: S=C(NCc1cccnc1)Nc1cc(Cl)cc(Cl)c1 [VPC-70496]
- inhibition at 5 µM (5 μM, TABLE 3): 22%
- inhibition at 10 µM (TABLE 3): 95%
- inhibition at 25 µM [2]: 96%

SMILES: C[C@@H]1CCNC(=O)[C@H]1NC(=O)NCCCc1cccc(Cl)c1 [VPC-70249]
- inhibition at 25 µM [1]: 65%

SMILES: O=C(CNC(=O)C1CCCC1)NC[C@@H](O)COc1cccc2ccccc12 [VPC-70252]
- inhibition at 25 µM [1]: 45%

SMILES: O=C(CCNC(=O)c1cccc(C(F)(F)F)c1)NCc1ccccc1 [VPC-70554]
- inhibition at 12.5 µM (TABLE 3): 71%

SMILES: COC(=O)c1cc(NC(=S)NCc2ccccc2)cc(Cl)c1F [VPC-70501]
- inhibition at 5 µM (5 μM, TABLE 3): 34%
- inhibition at 10 µM (TABLE 3): 37%
- inhibition at 25 µM [2]: 90%

SMILES: Cc1cc(NC(=S)NCc2ccon2)cc(C(F)(F)F)c1 [VPC-70564]
- inhibition at 12.5 µM (TABLE 3): 73%

SMILES: NS(=O)(=O)c1ccc(NC(=O)[C@H]2CC=CC[C@H]2C(=O)O)cc1 [VPC-70394]
- inhibition at 25 µM [1]: 54%

SMILES: O=C(NCCNc1ncccn1)NC[C@@H](O)c1cccc(Cl)c1 [VPC-70263]
- inhibition at 25 µM [1]: 32%

SMILES: CS(=O)(=O)Nc1cccc(C2=NN(C(=O)CCC(=O)O)[C@H](c3ccccc3O)C2)c1 [VPC-70391]
- inhibition at 25 µM [1]: 54%

SMILES: Fc1ccc(NC(=S)NCc2ccccc2)cc1C(F)(F)F [VPC-70532]
- inhibition at 12.5 µM (TABLE 3): 101%

SMILES: CCCc1cc(=O)oc2cc(C)cc(OCC(=O)N[C@H](C(=O)O)C(C)C)c12 [VPC-70405]
- inhibition at 25 µM [1]: 54%

SMILES: Cc1cc2c(cc1S(=O)(=O)N1CCN(C(=O)CCC3CCCC3)CC1)OCC(=O)N2 [VPC-70380]
- inhibition at 25 µM [1]: 68%

SMILES: COc1ccccc1-c1noc(CNC(=O)N[C@H](Cc2c[nH]c3ccccc23)C(=O)O)n1 [VPC-70345]
- inhibition at 25 µM [1]: 51%

SMILES: NC(=O)c1ccc(NC(=O)COC(=O)[C@H](Cc2ccccc2)NC(=O)c2ccccc2)cc1 [VPC-70339]
- inhibition at 25 µM [1]: 50%

SMILES: O=S(O)(=Nc1cccc2[nH]ccc12)C1CCc2n[nH]nc2C1 (centres unmarked) [VPC-70158]
- inhibition at 25 µM [1]: 41%

SMILES: O=C(CSCCO)Nc1ccc(C23CC4CC(CC(C4)C2)C3)cc1 [VPC-70146]
- inhibition at 25 µM [1]: 52%

SMILES: FC(F)(F)c1cccc(NC(=S)NCc2ccccc2C(F)(F)F)c1 [VPC-70535]
- inhibition at 12.5 µM (TABLE 3): 95%

SMILES: O=C(Nc1cccc(C(F)(F)F)c1)Nc1cccc(C(F)(F)F)c1 [VPC-70511]
- inhibition at 5 µM (5 μM, TABLE 3): 108%
- inhibition at 10 µM (TABLE 3): 112%
- inhibition at 25 µM [2]: 102%
- pIC50 [3]: 5.70

SMILES: CS(=O)(=O)NCCc1ccc(C(=O)NC[C@H](c2cccs2)c2c[nH]c3ccccc23)cc1 [VPC-70361]
- inhibition at 25 µM [1]: 61%

SMILES: CC[C@@H]1Oc2cc(S(=O)(=O)N(C)CC(=O)N(C)Cc3ccccc3)c(C)cc2NC1=O [VPC-70381]
- inhibition at 25 µM [2]: 74%
- pIC50 [3]: 4.70

SMILES: C[C@H](OC(=O)[C@@H]1CCCN1C(=O)C12CC3CC(CC(C3)C1)C2)C(=O)c1c[nH]c2ccccc12 [VPC-70360]
- inhibition at 25 µM [1]: 64%

SMILES: CCCc1cc(=O)oc2cc(C)cc(OCC(=O)N[C@@H](C)C(=O)O)c12 [VPC-70404]
- inhibition at 25 µM [1]: 53%

SMILES: C[C@H](CCc1ccccc1)NC(=O)[C@H]1CCCN(C(=O)CCc2c[nH]c3ccccc23)C1 [VPC-70314]
- inhibition at 25 µM [2]: 93%
- pIC50 [3]: 4.82

SMILES: C=C(C)COc1cccc(NC(=S)NCc2cccc(C(F)(F)F)c2)c1 [VPC-70489]
- inhibition at 5 µM (5 μM, TABLE 3): 38%
- inhibition at 10 µM (TABLE 3): 86%
- inhibition at 25 µM [2]: 99%

SMILES: COc1ccccc1CNC(=O)c1ccc(N=S(=O)(O)c2ccc([C@@H](C)O)cc2)cc1 [VPC-70341]
- inhibition at 25 µM [1]: 50%
